Test results taken from article doi:10.1101/2025.03.14.643404, “A Bivalent Molecular Glue Linking Lysine Acetyltransferases to Oncogene-induced Cell Death” (bioRxiv, 2025).

Legend:
BRPF1 = target: T1, BRPF1 (Homo sapiens, UniProt P55201); assay: BROMOscan binding to recombinant human bromodomains; settings: 10 μM
T1 construct: purchased BROMOscan (service)

SUDHL5 cells = assay: RNA-seq differential genes in SUDHL5; assay type: cell-based, human; settings: SUDHL5, 1 nM, 30 min, 1, 2 and 4 hours; adj. P ≤ 0.05, |log2(fold change)| ≥ 0.5
Description: Cells were plated at 1M/mL and harvested in TRIsure (Bioline 38033). RNA was extracted using Direct-zol RNA MicroPrep columns (Zymo R2062) treated with DNAseI. cDNA was prepared (Meridian Bioscience BIO-65054) and used for qPCR (Meridian Bioscience BIO-94050) using an AppliedBiosystems QuantStudio 6Pro. Primer sequences were the following:
For sequencing library preparation, rRNA was depleted (NEB E7400) and total RNA prepared into paired-end libraries (NEB E7765) and indexed (NEB E7335). Library size distributions were confirmed using an Agilent Bioanalyzer and High Sensitivity DNA reagents (Agilent 5067) and concentrations determined by qPCR. […]
Raw reads were checked for quality using fastqc (https://www.bioinformatics.babraham.ac.uk/projects/fastqc/) and trimmed from adapters using cutadapt[111] using parameters cutadapt -a […] -b […] --nextseq-trim=20 --minimum-length 1. Transcripts were quantified using kallisto[112] against the human Gencode v33 indexed transcriptome and annotations. […] Re-processed published datasets from the Sequence Read Archive (SRA) were the following: TCIP1 – SRX20228454, SRX20228455, SRX202284546, SRX20228457, SRX20228458, SRX20228459, SRX20228448, SRX20228449, SRX20228450; CDK-TCIP1 – SRX22117221, SRX22117222, SRX22117223, SRX22117224, SRX22117225, SRX22117226, SRX22117227, SRX22117228, SRX22117229).

[1] = test system: BCL6-repressed GFP reporter; assay: BCL6 reporter assay (BCL6-repressed GFP) in K422 cells; assay type: cell-based, human; settings: 24 h, highest GFP signal
Description: KARPAS422 cells were lentivirally transduced with a construct containing the reporter. Description of the reporter construct has been published previously. After selection, cells were plated and treated with indicated amount of compound for 24 hours. Cells were washed in 2.5% FBS/PBS, stained with 1:250 v/v of 7-AAD (BD 559925) to distinguish live from dead cells, and harvested for flow cytometry on a BD Accuri. Given the polyclonal population after transduction, the area under the curve of the histogram representing FITC signal across all live cells was calculated as an integrative measure of total GFP signal. A GFP-positive gate two standard deviations from the mean was drawn from non-transduced cells and the area past a constant threshold was calculated and normalized to the signal from cells treated with DMSO.

[2] = test system: SUDHL5^TRE−3xFLAG-MYC cells; assay: Viability of SUDHL5 TRE-3xFLAG-MYC cells, 72 h; assay type: cell-based; settings: Homo sapiens
Description: Thirty thousand cells were seeded in 100 μl of media per well of a 96-well plate and treated with drug for the indicated times and doses. A resazurin-based indicator of cell health (PrestoBlue; P50200, Thermo Fisher) was added for 1.5 h at 37°C, at which point the fluorescence ratio at 560/590 nm was recorded (Tecan Spark). The background fluorescence was subtracted, and the signal was normalized to DMSO-treated cells. IC50 measurements on cell lines were calculated using at least three biological replicates (separate cell passages). Fit of dose–response curves to data and statistical analysis was performed using GraphPad PRISM using the four-parameter log(inhibitor) vs response function.
An N-terminal fusion of 3xFLAG followed by a GGSGS linker fused to the coding sequence of human c-MYC (NM_002467.6)) was subcloned into pCW57-MCS1–2A-MCS2 (a gift from Adam Karpf (Addgene plasmid 71782; http://n2t.net/addgene:71782; RRID:Addgene_71782)).
This construct is the same used for BCL6 nanoBRET studies above. Lentivirus was produced from HEK293T cells via polyethylenimine transfection. Briefly, cells were transfected using 2nd-generation packaging plasmids and media replaced after 24 hours. […]

T1 sequence (P55201 628-732 limits assumed): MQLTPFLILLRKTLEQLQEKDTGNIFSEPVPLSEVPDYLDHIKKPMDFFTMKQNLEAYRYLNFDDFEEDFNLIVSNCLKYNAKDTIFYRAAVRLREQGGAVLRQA

IC50 ([2]; SU-DHL-5, + dox (1 μg/mL doxycycline 24 h prior)): ~7.5 nM | IC50 ([2]; SU-DHL-5, − dox): ~2 nM
Compound: CNC(=O)COc1cc2cc(Nc3nc(N4CCC(C(=O)N5CCN(CCC(=O)N6CCC(n7nc(N8CCCc9cc(-c%10cnn(C)c%10)c(C(F)F)cc98)c8c7CCN(C(=O)NC)C8)CC6)CC5)CC4)ncc3Cl)cc(OC)c2n(C)c1=O [TCIP3]
bromodomain selectivity (BRPF1): may also engage BRPF1 at high compound concentrations | number of genes decreased (SUDHL5 cells): 2,126 | number of genes induced (SUDHL5 cells): 1,510 | GFP signal relative to DMSO treatment [1]: 10 times
